# Measurements: publication PMC11514582, “Leveraging the Aggregated Protein Dye YAT2150 for Malaria Chemotherapy” (Pharmaceutics, 2024)
# Values joined by “and” are separate entries in the source; they are usually repeats but may differ in a detail not shown here. Equal values may be shown once.
# Legend:
# [1] = system: 3D7 P. falciparum; assay: Parasite-killing profile (parasite viability after 10x IC50); assay type: cell-based, Plasmodium falciparum; conditions: treatment for 24 h with 10× IC50
# Experimental: After the treatment, the drug was removed and the culture diluted 1/3 and re-established in RBCs labeled with carboxyfluorescein diacetate succinimidyl ester (CFDA-SE, Life Technologies) to a 2% hematocrit in order to evaluate the reinfection capacity of the treated parasites. CFDA-SE-labelled erythrocytes were prepared by incubating 1% hematocrit in RPMI containing 10 μM CFDA-SE at 37 °C for 30 min, after which they were washed and maintained at 50% hematocrit at 4 °C for up to 24 h before use. Parasites were grown for 48 h, a complete replication cycle, in standard culturing conditions (5% O2, 5% CO2, and 90% N2 at 37 °C). After this incubation time, parasitemia was assessed by two-color flow cytometry (Attune NxT Flow Cytometer, Thermo Fisher Scientific, Inc.) using Hoechst 33342 to stain nuclei. Hoechst 33342 fluorescence signal was detected by exciting samples at 405 nm and collecting the emission with a 440/50-nm bandpass filter (VL1), whereas CFDA-SE was excited at 488 nm and detected with a 530/30 nm filter. Samples were analyzed using the Attune NxT software package 3.2.1, and parasite viability was plotted as the percentage of infected CFDA-SE-stained erythrocytes, using as reference untreated samples of the initial inoculum after 48 h of incubation with labeled erythrocytes.
# [2] = system: P. berghei ookinete development; assay: Ex vivo gametocyte-to-ookinete transition inhibition (ookinete maturation) assay; assay type: cell-based, Plasmodium berghei; conditions: ex vivo, 24 h at 21 °C
# Experimental: Eight days before ookinete production, 100 µL of a red blood cell (RBC) pellet containing the Plasmodium berghei circumsporozoite protein and thrombospondin-related adhesive protein (TRAP)-related protein (CTRP)-green fluorescent protein (GFP) strain (CTRP-GFP, which expresses GFP when reaching ookinete stage, kindly provided by Inga Siden-Kiamos) in cryopreservation solution (RBC pellet:RPMI:30% glycerol in water, 1:1:2) was administered intraperitoneally (i.p.) to a BALB/c mouse (Charles River Laboratories, Wilmington, MA, USA). […] The effect of drugs on gametocyte-to-ookinete conversion was assessed in three independent replicas by plating 120 µL of each culture treated with serial dilutions of the compounds in 96-well plates and incubated for 24 h at 21 °C with orbital shaking at 50 rpm (modified from). Finally, samples diluted 1:100 in PBS were analyzed in an LSRFortessa flow cytometer (BD Biosciences, Franklin Lakes, NJ, USA) set up with the 4 lasers, 20 parameters standard configuration. The GFP positive cell population was counted (λexcitation: 488 nm; λemission: 525/40 nm) using BD FACSDiva software 6.1.3 (BD Biosciences) for data collection and Flowing Software 2.5.1 (Turku Center for Biotechnology, Turku, Finland) for analysis.
# [3] = cited from earlier work
# [4] = In vivo toxicity in C. elegans; design: species or system Caenorhabditis elegans; conditions: N2 Bristol, Caenorhabditis elegans, in vivo; 48 h, viability
# Experimental: (§1) The Caenorhabditis elegans N2 Bristol strain (kindly provided by Dr. Christian Griñán-Ferré) was cultured, following established methods, in 90 mm Petri dishes containing solid Nematode Growth Media (NGM) seeded with E. coli OP50 (100 µL of an overnight culture spread on top of the NGM), maintained at 20 °C, and expanded to new plates once a week by transferring a 1-cm^3 NGM cube to a new plate. […] To do this, a plate with gravid adult worms was washed twice with 5 mL of M9 buffer (20 mM KH2PO4, 42 mM Na2HPO4, 86 mM NaCl, 1 mM MgSO4), and the nematodes were transferred to a 15-mL conical tube, where they were pelleted (400× g, 2 min). […] C. elegans viability and body length were analyzed after 48 h under a stereomicroscope (Leica M50 Routine Stereo Microscope; Leica Microsystems GmbH), taking representative images and videos with a 4× objective. C. elegans viability was determined in three experimentally independent replicas according to two variables: body shape (stiff, rod-like worms were counted as dead, as opposite to s-shaped live worms) and presence of movement in living C. elegans, with an n ≥ 100 worms/sample. Nematode body length was calculated with ImageJ software in worms anesthetized with 50 mM sodium azide. Statistically significant differences between groups were determined by the two-way analysis of variance (ANOVA) using GraphPad Prism 9.0.1.
# [5] = system: C. elegans; assay: In vivo toxicity in C. elegans; design: species or system Caenorhabditis elegans; conditions: non-encapsulated, 50 µM
# Experimental: as §1
# [6] = Human plasma protein binding (Rapid Equilibrium Dialysis); assay type: in vitro ADME; conditions: pH 7.2, RED, 4 h at 37 °C
# Experimental: The assay was carried out by Rapid Equilibrium Dialysis (RED). The compounds were dissolved at 5 μM in human plasma and added to the corresponding insert of the RED device (Thermo Fisher Scientific, Inc., Waltham, MA, USA), and dialysis was performed for 4 h at 37 °C in […], 25 mM tris-HCl, pH 7.2 (Tris BupH^TM, Thermo Fisher Scientific, Inc.). Then, 50-µL aliquots from each chamber were transferred to empty vials, to which 50 µL of dialysis buffer was added. As control, 50 µL of plasma was mixed with 50 µL of buffer. Three hundred µL of acetonitrile was added to all the samples, which were analyzed by ultra-performance liquid chromatography with tandem mass spectrometry as previously described.
# [7] = Cytotoxicity assay in HUVEC (resazurin); assay type: cell-based; conditions: human, read-out: HUVEC inhibition (CC50)
compound,measurement,setting,value
CCN(CC)c1ccc(/C=C/c2cc[n+](CCCCCCCCCC[n+]3ccc(/C=C/c4ccc(N(CC)CC)cc4)c(C)c3)cc2C)cc1 [YAT2150],parasite survival,[1],8.5%
same,concentration that abolished ookinete production,[2],ca. 0.5 µM
same,Transport through Caco-2 AB (Papp),[3]; apical to basolateral,207.6 ± 11.6 ^7 nm/s
same,Transport through Caco-2 Efflux ratio,[3],0.5 and 0.48 ± 0.03 ^7
same,IC50 at 48 h,[4],16.2 ± 1.4 µM
same,nematode survival/length assay observation,[5],No worms could be found
same,"fraction unbound at 4 h, 5 μM",[6],0.003
same,CC50 at 48 h,[7],14.8 ± 3.8 µM
